Measured values: patent US20210300924A1, “5-[6-[[3-(4,5,6,7-TETRAHYDROPYRAZOLO[4,3-C]PYRIDIN-1-YL)AZETIDIN-1-YL]METHYL]MORPHOLIN-4-YL]QUINOLINE-8-CARBONITRILE DERIVATIVES AND SIMILAR COMPOUNDS AS TLR7-9 ANTAGONISTS FOR TREATING SYSTEMIC LUPUS ERYTHEMATOSUS” (Hoffmann-La Roche Inc., priority 2018, published 2021)

What was measured:
[1] = molecular target: T1, TLR9 (Homo sapiens, UniProt Q9NR96); assay: Human PBMC cell-based assay; set-up: endogenous in cells; host or cells: human PBMC from healthy donor whole blood; conditions: CpG ODN 2216 stimulation, overnight, cytokine readout, read-out: hPBMC/TLR9 IC50
T1 sequence (Q9NR96 26-1032): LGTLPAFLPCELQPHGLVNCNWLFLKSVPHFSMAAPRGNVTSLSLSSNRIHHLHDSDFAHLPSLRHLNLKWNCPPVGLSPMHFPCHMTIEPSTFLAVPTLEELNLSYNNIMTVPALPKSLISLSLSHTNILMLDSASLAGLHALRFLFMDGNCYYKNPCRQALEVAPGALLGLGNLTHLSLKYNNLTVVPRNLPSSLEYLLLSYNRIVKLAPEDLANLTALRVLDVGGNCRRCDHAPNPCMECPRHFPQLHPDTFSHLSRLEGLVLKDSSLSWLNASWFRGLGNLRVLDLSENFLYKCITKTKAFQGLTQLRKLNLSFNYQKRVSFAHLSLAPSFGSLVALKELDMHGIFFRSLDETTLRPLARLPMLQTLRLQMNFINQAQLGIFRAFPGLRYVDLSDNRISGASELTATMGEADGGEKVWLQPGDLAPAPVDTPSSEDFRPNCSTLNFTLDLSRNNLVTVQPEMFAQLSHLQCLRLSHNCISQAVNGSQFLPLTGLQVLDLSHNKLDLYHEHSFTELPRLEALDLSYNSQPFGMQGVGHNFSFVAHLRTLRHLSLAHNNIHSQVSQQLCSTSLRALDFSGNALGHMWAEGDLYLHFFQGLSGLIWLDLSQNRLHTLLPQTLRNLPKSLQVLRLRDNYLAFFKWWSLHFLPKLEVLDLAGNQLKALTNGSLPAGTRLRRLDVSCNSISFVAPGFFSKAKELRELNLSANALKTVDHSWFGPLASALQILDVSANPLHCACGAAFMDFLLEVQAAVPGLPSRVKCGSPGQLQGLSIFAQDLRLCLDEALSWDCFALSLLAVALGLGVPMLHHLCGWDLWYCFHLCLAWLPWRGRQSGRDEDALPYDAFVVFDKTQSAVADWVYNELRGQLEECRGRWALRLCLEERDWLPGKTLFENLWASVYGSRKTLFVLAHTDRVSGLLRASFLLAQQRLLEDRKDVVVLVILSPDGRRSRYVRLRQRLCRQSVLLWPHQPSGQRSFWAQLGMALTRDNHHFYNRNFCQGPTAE
Description: Human PBMC Cell-Based Assay
Unlike the HEK reporter cell lines, human peripheral blood mononuclear cell (PBMC) represents primary human immune cells in blood mainly consisting of lymphocytes, monocytes, and dendritic cells. These cells express TLR7, TLR8, or TLR9, and therefore are natural responders to respective ligand stimulation. Upon activation of these TLRs, PBMCs secrete similar cytokines and chemokines in vitro and in vivo, and therefore the in vitro potency of a TLR7/8/9 antagonist in human PBMC is readily translatable to its pharmacodynamics response in vivo.
Human peripheral blood mononuclear cells (PBMC) were isolated from freshly-drawn lithium-heparinized (Lithium Heparin Plus blood Collection tube, BD Vacutainer®) healthy donor whole blood by density gradient (Ficoll-Paque™ PLUS, GE Healthcare life Sciences). Briefly, […] was diluted with 25 mL PBS (without Ca^2+, Mg^2+) in a 50 mL conical tube with porous barrier (Leucosep tube, Greiner bio-one), where 15.5 mL Ficoll-Paque was under laid after spinning. Tubes were centrifuged for 20 minutes at 800×g (1946 rpm) with the brake in the off position, and PBMC were collected from the buffy coat. Cells were then washed twice in PBS, and red blood cells were lysed by suspension in 2 mL (Red Blood Cell Lysis Buffer, Alfa Aesar) for 5-10 minutes at room temperature. After a final wash in PBS, PBMC were resuspended at a final concentration of 2×10^6 cells/mL in RPMI-1640 media with GlutaMAX™ (Gibco) supplemented with 10% Fetal Bovine Serum (Sigma) and plated at 150 μL/well (3×10^5 cells/well) in tissue culture treated round bottom 96-well plates (Corning Incorporated). Antagonist compounds (compounds of this invention) solubilized and serial diluted in 100% DMSO were added in duplicate to cells to yield a final concentration of 1% DMSO (v/v). PBMC were incubated with antagonist compounds for 30 minutes at 37° C., 5% CO2 before adding various TLR agonist reagents in 48 μL complete media per well as follows (final concentrations indicated): CpG ODN 2216 (InvivoGen) at […] for TLR9, ORN 06/LyoVec (InvivoGen) at 1 μg/mL for TLR8 and R848 (InvivoGen) at 1 μg/mL for TLR7 and TLR8. PBMC were incubated overnight at 37° C. with 5% CO2. Cell culture supernatants were collected, and levels of various human cytokines were assessed by Luminex assay (ProcartaPlex™ Multiplex Immunoassay, Invitrogen) or ELISA procedure according to the manufacturer's recommended protocol (eBioscience, ThermoFisher Scientific). Viability of the cells was also checked with Cell Viability Assay (CellTiter Glo® Luminescent Cell Viability Assay, Promega).

[2] = molecular target: T2, hERG channel (Homo sapiens, UniProt Q12809); assay: hERG channel inhibition assay (patch-clamp, CHOhERG cells); format: cell-based; conditions: for IC50 / IC20: CHOhERG cells, whole-cell patch-clamp; for IC20: human, CHO cells stably expressing hERG (CHOhERG cells); for hERG IC20/TLR7 IC50 / hERG IC20/TLR8 IC50 / hERG IC20/TLR9 IC50: safety ratio, >30 suggests sufficient window
T2 construct: expressed in transfected cells; host or cells: CHO (Chinese hamster ovary), CHOhERG
Description: hERG Channel Inhibition Assay:
The hERG K^+ channels were cloned in humans and stably expressed in a CHO (Chinese hamster ovary) cell line. CHOhERG cells were used for patch-clamp (voltage-clamp, whole-cell) experiments. Cells were stimulated by a voltage pattern to activate hERG channels and conduct hERG currents (rapid delayed outward rectifier potassium current of the hERG channel). After the cells were stabilized for a few minutes, the amplitude and kinetics of IKhERG were recorded at a stimulation frequency of 0.1 Hz (6 bpm). Thereafter, the test compound was added to the preparation at increasing concentrations. For each concentration, an attempt was made to reach a steady-state effect, usually, this was achieved within 3-10 min at which time the next highest concentration was applied. The amplitude and kinetics of IKhERG are recorded in each concentration of the drug which were compared to the control values (taken as 100%). (references: Redfern W S, Carlsson L, Davis A S, Lynch W G, MacKenzie I, Palethorpe S, Siegl P K, Strang I, Sullivan A T, Wallis R, Camm A J, Hammond T G. 2003; Relationships between preclinical cardiac electrophysiology, clinical QT interval prolongation and torsade de pointes for a broad range of drugs: evidence for a provisional safety margin in drug development. Cardiovasc. Res. 58:32-45, Sanguinetti MC, Tristani-Firouzi M. 2006; hERG potassium channels and cardiac arrhythmia. Nature 440:463-469, Webster R, Leishman D, Walker D. 2002; Towards a drug concentration effect relationship for QT prolongation and torsades de pointes. Curr. Opin. Drug Discov. Devel. 5:116-26).

T2 sequence (Q12809 whole entry): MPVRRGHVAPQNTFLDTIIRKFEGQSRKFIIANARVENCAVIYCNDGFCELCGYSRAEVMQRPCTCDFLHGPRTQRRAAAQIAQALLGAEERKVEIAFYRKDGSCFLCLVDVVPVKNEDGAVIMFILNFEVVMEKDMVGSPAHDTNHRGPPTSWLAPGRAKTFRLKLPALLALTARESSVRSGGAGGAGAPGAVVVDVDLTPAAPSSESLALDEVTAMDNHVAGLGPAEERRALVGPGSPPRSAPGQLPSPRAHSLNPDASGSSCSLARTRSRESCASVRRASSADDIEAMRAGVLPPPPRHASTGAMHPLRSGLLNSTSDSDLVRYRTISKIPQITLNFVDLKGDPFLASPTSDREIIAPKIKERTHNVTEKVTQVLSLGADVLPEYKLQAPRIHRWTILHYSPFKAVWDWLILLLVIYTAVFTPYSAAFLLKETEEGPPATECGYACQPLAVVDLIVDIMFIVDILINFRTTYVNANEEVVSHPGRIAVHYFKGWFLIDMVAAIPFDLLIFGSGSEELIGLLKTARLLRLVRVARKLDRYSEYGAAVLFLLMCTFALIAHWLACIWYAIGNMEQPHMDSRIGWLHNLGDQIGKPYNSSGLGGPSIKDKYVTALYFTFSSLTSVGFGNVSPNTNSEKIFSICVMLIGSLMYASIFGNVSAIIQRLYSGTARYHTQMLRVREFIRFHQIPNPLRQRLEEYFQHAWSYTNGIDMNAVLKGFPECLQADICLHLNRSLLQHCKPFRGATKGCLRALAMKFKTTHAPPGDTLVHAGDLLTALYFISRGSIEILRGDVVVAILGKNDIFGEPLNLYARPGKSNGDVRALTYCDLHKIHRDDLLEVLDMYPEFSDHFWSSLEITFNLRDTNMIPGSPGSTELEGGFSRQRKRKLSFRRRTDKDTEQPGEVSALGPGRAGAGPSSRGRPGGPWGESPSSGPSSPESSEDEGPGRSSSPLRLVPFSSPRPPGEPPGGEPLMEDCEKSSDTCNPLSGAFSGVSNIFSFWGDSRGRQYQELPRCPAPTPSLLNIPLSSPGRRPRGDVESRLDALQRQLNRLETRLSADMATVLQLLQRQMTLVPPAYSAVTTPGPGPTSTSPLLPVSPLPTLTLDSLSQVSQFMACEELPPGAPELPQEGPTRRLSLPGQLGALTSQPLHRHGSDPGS

| Structure (SMILES) | IC50 [1] [nM] | IC50 [2] [nM] | IC20 [2] [nM] | hERG IC20/TLR7 IC50 [2] | hERG IC20/TLR8 IC50 [2] | hERG IC20/TLR9 IC50 [2] |
| --- | --- | --- | --- | --- | --- | --- |
| C[C@@H]1CN(c2ccc(C#N)c3ncccc23)C[C@H](CN2CC(n3cc4c(n3)[C@H](C)CNC4)C2)O1 (single isomer, unassigned) [Example 25] | 346 | – | – | – | – | – |
| C[C@@H]1CN(c2ccc(C#N)c3ncccc23)C[C@H](CN2CC(n3ncc4c3[C@@H](C)NCC4)C2)O1 (single isomer, unassigned) [Example 31] | 235 | – | – | – | – | – |
| C[C@@H]1CN(c2ccc(C#N)c3ncccc23)C[C@H](CN2CC(n3cc4c(n3)CCN[C@@H]4C)C2)O1 [Example 21, 5-[(2R,6S)-2-methyl-6-[[3-[(4R)-4-methyl-4,5,6,7-tetrahydropyrazolo[4,3-c]pyridin-2-yl]azetidin-1-yl]methyl]morpholin-4-yl]quinoline-8-carbonitrile] | 92 | – | – | – | – | – |
| CCN1CCc2cn(C3CN(C[C@H]4CN(c5ccc(C#N)c6ncccc56)C[C@@H](C)O4)C3)nc2C1 [Example 7, 5-[(2S,6R)-2-[[3-(6-ethyl-5,7-dihydro-4H-pyrazolo[3,4-c]pyridin-2-yl)azetidin-1-yl]methyl]-6-methyl-morpholin-4-yl]quinoline-8-carbonitrile] | 195 | – | – | – | – | – |
| C[C@@H]1Cc2cnn(C3CN(C[C@H]4CN(c5ccc(C#N)c6ncccc56)C[C@@H](C)O4)C3)c2CN1 (single isomer, unassigned) [Example 28] | 214 | – | – | – | – | – |
| C[C@@H]1CN(c2ccc(C#N)c3ncccc23)C[C@H](CN2CCC(n3cc4c(n3)CCNC4)CC2)O1 [Example 36, 5-[(2R,6S)-2-methyl-6-[[4-(4,5,6,7-tetrahydropyrazolo[4,3-c]pyridin-2-yl)-1-piperidyl]methyl]morpholin-4-yl]quinoline-8-carbonitrile] | – | > 20000 | 10000 | 566.6 | 246.7 | 180.7 |
| C[C@@H]1CN(c2ccc(C#N)c3ncccc23)C[C@H](CN2CC(n3cc4c(n3)[C@H](C)NCC4)C2)O1 (single isomer, unassigned) [Example 34] | 202 | – | – | – | – | – |
| C[C@@H]1CN(c2ccc(C#N)c3ncccc23)C[C@H](CN2CC(n3ncc4c3CN[C@@H](C)C4)C2)O1 (single isomer, unassigned) [Example 27] | 81 | – | – | – | – | – |
| C[C@@H]1CN(c2ccc(C#N)c3ncccc23)C[C@H](CN2CCC(n3ncc4c3CCNC4)CC2)O1 [Example 35, 5-[(2R,6S)-2-methyl-6-[[4-(4,5,6,7-tetrahydropyrazolo[4,3-c]pyridin-1-yl)-1-piperidyl]methyl]morpholin-4-yl]quinoline-8-carbonitrile] | – | > 20000 | > 10000 | >1924.5 | >397.8 | >121.4 |
| C[C@@H]1CN(c2ccc(C#N)c3ncccc23)C[C@H](CN2CC(n3cc4c(n3)CCN[C@H]4C)C2)O1 [Example 23, 5-[(2R,6S)-2-methyl-6-[[3-[(4S)-4-methyl-4,5,6,7-tetrahydropyrazolo[4,3-c]pyridin-2-yl]azetidin-1-yl]methyl]morpholin-4-yl]quinoline-8-carbonitrile] | 143 | – | – | – | – | – |
| C[C@@H]1Cc2nn(C3CN(C[C@H]4CN(c5ccc(C#N)c6ncccc56)C[C@@H](C)O4)C3)cc2CN1 [Example 17, 5-[(2R,6S)-2-methyl-6-[[3-[(6R)-6-methyl-4,5,6,7-tetrahydropyrazolo[4,3-c]pyridin-2-yl]azetidin-1-yl]methyl]morpholin-4-yl]quinoline-8-carbonitrile] | 113 | – | – | – | – | – |
| Cc1c2c(nn1C1CN(C[C@H]3CN(c4ccc(C#N)c5ncccc45)C[C@@H](C)O3)C1)CCN(C)C2 [Example 15, 5-[(2S,6R)-2-[[3-(3,5-dimethyl-6,7-dihydro-4H-pyrazolo[4,3-c]pyridin-2-yl)azetidin-1-yl]methyl]-6-methyl-morpholin-4-yl]quinoline-8-carbonitrile] | 110 | – | – | – | – | – |
| C[C@@H]1CN(c2ccc(C#N)c3ncccc23)C[C@H](CN2CC(n3ncc4c3CCNC4)C2)O1 [Example 1, 5-[(2R,6S)-2-methyl-6-[[3-(4,5,6,7-tetrahydropyrazolo[4,3-c]pyridin-1-yl)azetidin-1-yl]methyl]morpholin-4-yl]quinoline-8-carbonitrile] | – | > 20000 | > 10000 | >1023.8 | >584.4 | >174.0 |
| C[C@@H]1CN(c2ccc(C#N)c3ncccc23)C[C@H](CN2CC(n3ncc4c3[C@H](C)NCC4)C2)O1 (single isomer, unassigned) [Example 32] | 145 | – | – | – | – | – |
| C[C@@H]1CN(c2ccc(C#N)c3ncccc23)C[C@H](CN2CC(n3cc4c(n3)CCNC4)C2)O1 [Example 2, 5-[(2R,6S)-2-methyl-6-[[3-(4,5,6,7-tetrahydropyrazolo[4,3-c]pyridin-2-yl)azetidin-1-yl]methyl]morpholin-4-yl]quinoline-8-carbonitrile] | – | > 20000 | > 10000 | >403.5 | >538.4 | >151.6 |
| C[C@@H]1CN(c2ccc(C#N)c3ncccc23)C[C@H](CN2CC(n3cc4c(n3)CNC4)C2)O1 [Example 11, 5-[(2S,6R)-2-[[3-(5,6-dihydro-4H-pyrrolo[3,4-c]pyrazol-2-yl)azetidin-1-yl]methyl]-6-methyl-morpholin-4-yl]quinoline-8-carbonitrile] | – | > 20000 | > 10000 | >602.4 | >531.9 | >204.5 |
